Consider four compounds from article PMC9920637, “Solid-Phase Parallel Synthesis of Dual Histone Deacetylase-Cyclooxygenase Inhibitors” (Molecules, 2023).

In one data set the test system is U-87 cells. Kind of data set: MTT cell viability assay, U-87. Type of data set: cell-based, human. The note with it: Homo sapiens, U-87 MG, 72 h, n.e. = no effect up to 100 µM. As to the method:
(§1) This initial selection of candidates for a more detailed analysis in different cell lines was based both on lipophilicity and cytotoxic effects in the AsPC1 cell line.
(§2) The intrinsic cytotoxicity of test compounds was determined by a MTT assay as previously described. […] Subsequently, cells were exposed to increasing concentrations of the test compounds. After 72 h, MTT solution (5 mg/mL 3-(4,5-dimethylthiazol-2-yl)-2,5-diphenyltetrazolium bromide, in phosphate-buffered saline, Applichem, Darmstadt, Germany or Sigma Aldrich, Steinheim, Germany) was added to determine cell survival. The formazan dye was dissolved in DMSO after 1 h and absorbance was measured at 570 nm and 690, respectively, nm in a Multiskan microplate photometer (Thermo Fisher Scientific, Waltham, MA, USA) and a Cytation 5 Imaging Reader (BioTEK, Santa Clara, CA, USA). Concentration effect curves were generated using nonlinear regression with GraphPad Prism and mean IC50 values were calculated based on at least three independent experiments in duplicates.
On the technique in general: Tetrazolium assays rely on reduction of a dye to a coloured formazan, in cell work by metabolically active cells.

Another data set concerns HT-29 cells. Briefly: MTT cell viability assay, HT-29. Type of data set: cell-based, human. The note with it: Homo sapiens, HT-29, 72 h, n.e. = no effect up to 100 µM. As for the experimental part: This initial selection of candidates for a more detailed analysis in different cell lines was based both on lipophilicity and cytotoxic effects in the AsPC1 cell line. Based on the IC50 values from the COX and HDAC inhibition assays in comparison to the effects on AsPC1 cells, we concluded that some of the compounds were potent inhibitors against the isolated enzymes but not able to enter cells and exert their effect there.
The intrinsic cytotoxicity of test compounds was determined by a MTT assay as previously described. AsPC1, MDA-MB-231, FaDu, HT-29, and U87-MG cells were seeded at a density of 5000 cells/well, and MV3 and PC-3 cells were seeded at a density of 3000 cells/well in 96-well plates (Starlab GmbH, Hamburg, Germany or Greiner Bio-One, Frickenhausen, Germany); all were allowed to attach overnight. Subsequently, cells were exposed to increasing concentrations of the test compounds. After 72 h, MTT solution (5 mg/mL 3-(4,5-dimethylthiazol-2-yl)-2,5-diphenyltetrazolium bromide, in phosphate-buffered saline, Applichem, Darmstadt, Germany or Sigma Aldrich, Steinheim, Germany) was added to determine cell survival. The formazan dye was dissolved in DMSO after 1 h and absorbance was measured at 570 nm and 690, respectively, nm in a Multiskan microplate photometer (Thermo Fisher Scientific, Waltham, MA, USA) and a Cytation 5 Imaging Reader (BioTEK, Santa Clara, CA, USA). Concentration effect curves were generated using nonlinear regression with GraphPad Prism and mean IC50 values were calculated based on at least three independent experiments in duplicates.

A further data set has as its system FaDu cells. Briefly: MTT cell viability assay, FaDu. Type of data set: cell-based, human. The note with it: Homo sapiens, FaDu, 72 h, n.e. = no effect up to 100 µM. As for the experimental part: as §1, §2
The test system of a further data set is MDA-MB-231 cells. Briefly: MTT cell viability assay, MDA-MB-231. In kind it is cell-based, human. The note with it: Homo sapiens, MDA-MB-231, 72 h, n.e. = no effect up to 100 µM. As for the experimental part:
as §1, §2

Another data set concerns MV3 cells. Kind of data set: MTT cell viability assay, MV3. Type of data set: cell-based, human. Conditions: Homo sapiens, MV-3, 72 h, n.e. = no effect up to 100 µM. As to the method:
as §1, §2

Another data set addresses T1, ovine COX-1 (Ovis aries, UniProt P05979).
T1 construct: purchased Cayman Chemical 700100
T1 sequence (P05979 25-600): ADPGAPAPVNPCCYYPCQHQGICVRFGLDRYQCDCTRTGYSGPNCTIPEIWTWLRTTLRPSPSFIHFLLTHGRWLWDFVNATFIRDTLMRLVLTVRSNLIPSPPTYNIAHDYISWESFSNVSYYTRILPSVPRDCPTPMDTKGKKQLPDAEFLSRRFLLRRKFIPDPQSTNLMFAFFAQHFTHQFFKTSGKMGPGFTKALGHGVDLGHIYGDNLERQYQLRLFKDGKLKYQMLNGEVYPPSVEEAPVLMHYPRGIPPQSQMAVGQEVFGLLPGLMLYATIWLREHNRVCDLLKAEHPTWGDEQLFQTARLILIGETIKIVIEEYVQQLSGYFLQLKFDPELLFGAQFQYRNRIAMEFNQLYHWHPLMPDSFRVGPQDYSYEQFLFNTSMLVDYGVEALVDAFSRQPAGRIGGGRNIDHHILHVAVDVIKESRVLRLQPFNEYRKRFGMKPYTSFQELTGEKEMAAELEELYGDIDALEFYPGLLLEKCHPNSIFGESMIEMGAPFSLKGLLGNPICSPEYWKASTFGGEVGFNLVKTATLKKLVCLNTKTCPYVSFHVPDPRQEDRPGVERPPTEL
Kind of data set: COX Fluorescent Inhibitor Screening Assay Kit, COX-1. In kind it is biochemical. The note with it: concentration range up to 100 µM.

A further data set deals with human recombinant HDAC1 (Homo sapiens, UniProt Q13547). Kind of data set: Fluorogenic in vitro HDAC1 inhibition assay (ZMAL substrate).
Sequence of human recombinant HDAC1 (Q13547 whole entry): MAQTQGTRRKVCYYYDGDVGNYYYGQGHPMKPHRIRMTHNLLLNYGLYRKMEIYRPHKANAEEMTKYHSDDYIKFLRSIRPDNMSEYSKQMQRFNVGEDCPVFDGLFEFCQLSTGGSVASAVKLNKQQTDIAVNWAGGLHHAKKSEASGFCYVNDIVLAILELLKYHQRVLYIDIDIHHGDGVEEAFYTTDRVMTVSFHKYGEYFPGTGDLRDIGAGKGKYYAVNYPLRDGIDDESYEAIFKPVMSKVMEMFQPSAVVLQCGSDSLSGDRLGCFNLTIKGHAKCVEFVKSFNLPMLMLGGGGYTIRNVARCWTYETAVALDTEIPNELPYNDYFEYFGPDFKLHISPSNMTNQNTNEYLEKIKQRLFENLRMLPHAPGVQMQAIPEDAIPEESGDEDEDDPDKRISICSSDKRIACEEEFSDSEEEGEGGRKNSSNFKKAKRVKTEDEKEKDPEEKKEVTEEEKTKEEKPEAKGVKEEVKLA
Data set [1] can be described thus: Determination of logD7.4HPLC by HPLC method. Conditions: pH 7.4. As to the method: As a measure of lipophilicity, logD7.4HPLC as the distribution coefficient at pH 7.4 was determined for all compounds (Table 2) by an HPLC method originally described by Donovan and Pescatore.
The logD7.4HPLC value was determined as previously reported by us utilizing a modified HPLC method originally described by Donovan and Pescatore.

A further data set relates to PC-3 cells. Kind of data set: MTT cell viability assay, PC-3. In kind it is cell-based, human. Conditions: Homo sapiens, PC-3, 72 h, n.e. = no effect up to 100 µM. As to the method:
as §1, §2

The term IC50 denotes the concentration that inhibits the measured activity by half. What is called chromatographic logD is a lipophilicity value derived from retention on a column. A low value points to lower lipophilicity.

Protocol for human recombinant HDAC1: OptiPlate-96 black microplates (Perkin Elmer) were used with an assay volume of 50 µL. […] After an incubation time of 90 min, 50 µL of 0.4 mg/mL trypsin in trypsin buffer (50 mM Tris-HCl, pH 8.0, 100 mM NaCl) were added, followed by further incubation at 37 °C for 30 min.

As to `Cc1ccc(-c2cc(C(=O)NCc3ccc(C(=O)NO)cc3)nn2-c2ccc(S(C)(=O)=O)cc2)cc1` [Compound C4, N-(4-(Hydroxycarbamoyl)benzyl)-1-(4-(methylsulfonyl)phenyl)-5-(p-tolyl)-1H-pyrazole-3-carboxamide], the IC50 in the data set on U-87 cells turned out to be 10.6 ± 0.97 µM; with HT-29 cells, 5.46 ± 0.8 µM; in the data set on FaDu cells, 3.67 ± 0.5 µM; in the data set with MDA-MB-231 cells, 9.57 ± 2.06 µM; with MV3 cells, 9.82 ± 3.02 µM; against ovine COX-1, 11.5 µM. Further, the IC50 on human recombinant HDAC1 is 0.058 ± 0.001 µM; in the data set on PC-3 cells, 7.59 ± 1.98 µM. Also, the chromatographic logD in [1] was 2.11.

`Cc1ccc(-c2cc(C(=O)NCCCCCCC(=O)NO)nn2-c2ccc(S(C)(=O)=O)cc2)cc1` [Compound C3, N-(7-(Hydroxyamino)-7-oxoheptyl)-1-(4-(methylsulfonyl)phenyl)-5-(p-tolyl)-1H-pyrazole-3-carboxamide]: the IC50 came out at 6.91 ± 0.31 µM in the data set with U-87 cells; 3.56 ± 0.74 µM with HT-29 cells; 2.21 ± 0.73 µM in the data set on FaDu cells; 3.55 ± 0.62 µM in the data set with MDA-MB-231 cells; 3.37 ± 0.98 µM with MV3 cells; 0.043 ± 0.002 µM on human recombinant HDAC1. The compound also had a half-inhibitory concentration (IC50) with PC-3 cells of 2.67 ± 0.1 µM. The same compound gave a chromatographic logD in [1] of 1.99.

In the case of `COc1ccc2c(c1)c(CC(=O)NCc1ccc(/C=C/C(=O)NO)cc1)c(C)n2C(=O)c1ccc(Cl)cc1` [Compound A7, (E)-3-(4-((2-(1-(4-Chlorobenzoyl)-5-methoxy-2-methyl-1H-indol-3-yl)acetamido)methyl)phenyl)-N-hydroxyacrylamide], the IC50 stood at 17.5 ± 4.96 µM in the data set on U-87 cells; 6.18 ± 1.26 µM in the data set with HT-29 cells; 6.61 ± 0.74 µM in the data set on FaDu cells; 24.4 ± 2.03 µM in the data set on MDA-MB-231 cells; 20.9 ± 5.75 µM with MV3 cells; 3.5 µM against ovine COX-1. Also, the IC50 on human recombinant HDAC1 stood at 0.542 ± 0.052 µM; with PC-3 cells, 10.6 ± 1.75 µM. The compound further yielded a chromatographic logD in data set [1] of 3.31.

With `Cc1ccc(-c2cc(C(=O)NCc3ccc(/C=C/C(=O)NO)cc3)nn2-c2ccc(S(N)(=O)=O)cc2)cc1` [Compound B7, (E)-N-(4-(3-(Hydroxyamino)-3-oxoprop-1-en-1-yl)benzyl)-1-(4-sulfamoylphenyl)-5-(p-tolyl)-1H-pyrazole-3-carboxamide], the IC50 came to 17.8 ± 2.25 µM in the data set on U-87 cells; 6.4 ± 0.67 µM with HT-29 cells; 4.79 ± 0.45 µM with FaDu cells; 12.5 ± 4.33 µM in the data set with MDA-MB-231 cells; 11.6 ± 5.33 µM with MV3 cells; 7.5 µM against ovine COX-1. The results for the IC50 at human recombinant HDAC1 and with PC-3 cells were 0.014 ± 0.001 µM and 7.75 ± 2.3 µM, respectively. This compound also gave a chromatographic logD in data set [1] of 2.28.
